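GI50: concentration for 50% inhibition of growth. TGI: concentration producing complete growth inhibition.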
Assays:
Experiment in all cases: NCI anticancer screen, dose series, 384-well format
786-0 renal = test system: 786-0 renal
A498 renal = test system: A498 renal
A549 NSCLC = test system: A549 NSCLC
ACHN renal = test system: ACHN renal
BT-549 breast = test system: BT-549 breast
CAKI-1 renal = test system: CAKI-1 renal
CCRF-CEM leukemia = test system: CCRF-CEM leukemia
COLO 205 colon = test system: COLO 205 colon
DU-145 prostate = test system: DU-145 prostate
EKVX NSCLC = test system: EKVX NSCLC
HCC-2998 colon = test system: HCC-2998 colon
HCT-116 colon = test system: HCT-116 colon
HCT-15 colon = test system: HCT-15 colon
HL-60(TB) leukemia = test system: HL-60(TB) leukemia
HOP-62 NSCLC = test system: HOP-62 NSCLC
HOP-92 NSCLC = test system: HOP-92 NSCLC
HS 578T breast = test system: HS 578T breast
HT29 colon = test system: HT29 colon
IGROV1 ovarian = test system: IGROV1 ovarian
K-562 leukemia = test system: K-562 leukemia
KM12 colon = test system: KM12 colon
LOX IMVI melanoma = test system: LOX IMVI melanoma
M14 melanoma = test system: M14 melanoma
MALME-3M melanoma = test system: MALME-3M melanoma
MCF7 breast = test system: MCF7 breast
MDA-MB-231 breast = test system: MDA-MB-231 breast
MDA-MB-435 melanoma = test system: MDA-MB-435 melanoma
MDA-MB-468 breast = test system: MDA-MB-468 breast
MOLT-4 leukemia = test system: MOLT-4 leukemia
NCI-H226 lung = test system: NCI-H226 lung
NCI-H23 lung = test system: NCI-H23 lung
NCI-H322M lung = test system: NCI-H322M lung
NCI-H460 NSCLC = test system: NCI-H460 NSCLC
NCI-H522 lung = test system: NCI-H522 lung
NCI/ADR-RES ovarian = test system: NCI/ADR-RES ovarian
OVCAR-3 ovarian = test system: OVCAR-3 ovarian
OVCAR-4 ovarian = test system: OVCAR-4 ovarian
OVCAR-5 ovarian = test system: OVCAR-5 ovarian
OVCAR-8 ovarian = test system: OVCAR-8 ovarian
PC-3 prostate = test system: PC-3 prostate
RPMI-8226 leukemia = test system: RPMI-8226 leukemia
RXF 393 renal = test system: RXF 393 renal
SF-268 CNS = test system: SF-268 CNS
SF-295 CNS = test system: SF-295 CNS
SF-539 CNS = test system: SF-539 CNS
SK-MEL-28 melanoma = test system: SK-MEL-28 melanoma
SK-MEL-5 melanoma = test system: SK-MEL-5 melanoma
SK-OV-3 ovarian = test system: SK-OV-3 ovarian
SN12C renal = test system: SN12C renal
SNB-19 CNS = test system: SNB-19 CNS
SNB-75 CNS = test system: SNB-75 CNS
SW-620 colon = test system: SW-620 colon
T-47D breast = test system: T-47D breast
TK-10 renal = test system: TK-10 renal
U251 glioblastoma = test system: U251 glioblastoma
UACC-257 melanoma = test system: UACC-257 melanoma
UACC-62 melanoma = test system: UACC-62 melanoma
UO-31 renal = test system: UO-31 renal

C=CC(=O)Nc1cc2c(Nc3ccc(F)c(Cl)c3)ncnc2cc1OCCCN1CCOCC1
GI50 ([…]-0 renal): 1160 nM
TGI (786-0 renal): 2490 nM
GI50 (A498 renal): 424 nM
TGI (A498 renal): 1910 nM
GI50 (A549 NSCLC): 1320 nM
TGI (A549 NSCLC): 2710 nM
GI50 (ACHN renal): 13.1 nM
TGI (ACHN renal): 1660 nM
GI50 (BT-549 breast): 1060 nM
TGI (BT-549 breast): 2270 nM
GI50 (CAKI-1 renal): 462 nM
TGI (CAKI-1 renal): 1990 nM
GI50 (CCRF-CEM leukemia): 1200 nM
TGI (CCRF-CEM leukemia): 2460 nM
GI50 (COLO 205 colon): 1600 nM
TGI (COLO 205 colon): 3110 nM
GI50 (DU-145 prostate): 1070 nM
TGI (DU-145 prostate): 4190 nM
GI50 (EKVX NSCLC): 50.7 nM
TGI (EKVX NSCLC): 1930 nM
GI50 (HCC-2998 colon): 1320 nM
TGI (HCC-2998 colon): 2630 nM
GI50 (HCT-116 colon): 1760 nM
TGI (HCT-116 colon): 3260 nM
GI50 (HCT-15 colon): 1190 nM
TGI (HCT-15 colon): 2470 nM
GI50 (HL-60(TB) leukemia): 1220 nM
TGI (HL-60(TB) leukemia): 2500 nM
GI50 (HOP-62 NSCLC): 1640 nM
TGI (HOP-62 NSCLC): 3700 nM
GI50 (HOP-92 NSCLC): 1400 nM
TGI (HOP-92 NSCLC): 2930 nM
GI50 (HS 578T breast): 1220 nM
TGI (HS 578T breast): 2490 nM
GI50 (HT29 colon): 1550 nM
TGI (HT29 colon): 3000 nM
GI50 (IGROV1 ovarian): < 10 nM
TGI (IGROV1 ovarian): 838 nM
GI50 (K-562 leukemia): 1210 nM
TGI (K-562 leukemia): 2490 nM
GI50 (KM12 colon): 1580 nM
TGI (KM12 colon): 3020 nM
GI50 (LOX IMVI melanoma): 1510 nM
TGI (LOX IMVI melanoma): 2870 nM
GI50 (M14 melanoma): 1580 nM
TGI (M14 melanoma): 2950 nM
GI50 (MALME-3M melanoma): 1720 nM
TGI (MALME-3M melanoma): 3130 nM
GI50 (MCF7 breast): 1140 nM
TGI (MCF7 breast): 2520 nM
GI50 (MDA-MB-231 breast): 1530 nM
TGI (MDA-MB-231 breast): 3770 nM
GI50 (MDA-MB-435 melanoma): 2420 nM
TGI (MDA-MB-435 melanoma): 5090 nM
GI50 (MDA-MB-468 breast): < 10 nM
GI50 (MOLT-4 leukemia): 933 nM
TGI (MOLT-4 leukemia): 2150 nM
GI50 (NCI-H226 lung): 1960 nM
TGI (NCI-H226 lung): 4700 nM
GI50 (NCI-H23 lung): 1470 nM
TGI (NCI-H23 lung): 2800 nM
GI50 (NCI-H322M lung): < 10 nM
TGI (NCI-H322M lung): 1290 nM
GI50 (NCI-H460 NSCLC): 1510 nM
TGI (NCI-H460 NSCLC): 2900 nM
GI50 (NCI-H522 lung): 65.3 nM
TGI (NCI-H522 lung): 454 nM
GI50 (NCI/ADR-RES ovarian): 1450 nM
TGI (NCI/ADR-RES ovarian): 2870 nM
GI50 (OVCAR-3 ovarian): 1030 nM
TGI (OVCAR-3 ovarian): 2220 nM
GI50 (OVCAR-4 ovarian): 2020 nM
TGI (OVCAR-4 ovarian): 6000 nM
GI50 (OVCAR-5 ovarian): 1740 nM
TGI (OVCAR-5 ovarian): 13600 nM
GI50 (OVCAR-8 ovarian): 1440 nM
TGI (OVCAR-8 ovarian): 2790 nM
GI50 (PC-3 prostate): 1690 nM
TGI (PC-3 prostate): 3110 nM
GI50 (RPMI-8226 leukemia): 1220 nM
TGI (RPMI-8226 leukemia): 2490 nM
GI50 (RXF 393 renal): 620 nM
TGI (RXF 393 renal): 2000 nM
GI50 (SF-268 CNS): 209 nM
TGI (SF-268 CNS): 1650 nM
GI50 (SF-295 CNS): 4620 nM
TGI (SF-295 CNS): 15800 nM
GI50 (SF-539 CNS): 1370 nM
TGI (SF-539 CNS): 2680 nM
GI50 (SK-MEL-28 melanoma): 2030 nM
TGI (SK-MEL-28 melanoma): 3520 nM
GI50 (SK-MEL-5 melanoma): 1410 nM
TGI (SK-MEL-5 melanoma): 2750 nM
GI50 (SK-OV-3 ovarian): 1060 nM
TGI (SK-OV-3 ovarian): 2670 nM
GI50 (SN12C renal): 267 nM
TGI (SN12C renal): 1910 nM
GI50 (SNB-19 CNS): 1850 nM
TGI (SNB-19 CNS): 4140 nM
GI50 (SNB-75 CNS): 1120 nM
TGI (SNB-75 CNS): 2910 nM
GI50 (SW-620 colon): 1690 nM
TGI (SW-620 colon): 3080 nM
GI50 (T-47D breast): 54.7 nM
TGI (T-47D breast): 1440 nM
GI50 (TK-10 renal): 36.8 nM
TGI (TK-10 renal): 2090 nM
GI50 (U251 glioblastoma): 1910 nM
TGI (U251 glioblastoma): 3790 nM
GI50 (UACC-257 melanoma): 1310 nM
TGI (UACC-257 melanoma): 2620 nM
GI50 (UACC-62 melanoma): 1450 nM
TGI (UACC-62 melanoma): 2780 nM
GI50 (UO-31 renal): 1170 nM
TGI (UO-31 renal): 4220 nM

Source: PubChem BioAssay (NCI)
